Entries after “also recorded” stand apart in the source; their conditions may differ.
How the values were obtained:
[1] = tested on: differentiated immortalized rat DRG cells; assay: Whole-cell patch clamp, ATP current in rat DRG cells; assay type: cell-based; settings: for desensitization of elicited currents: 100 μM, 5-second applications, differentiated 3-4 weeks
[2] = tested on: HDRGVIII-C10.6 cells; assay: Whole-cell patch clamp characterization of […]-C10.6; assay type: cell-based, human; settings: for I Capsaicin: 1 μM; for I Purinergic (αβmeATP): 100 μM
[3] = target: T1, capsaicin receptors (Homo sapiens, UniProt Q8NER1); assay: Whole-cell patch clamp, capsaicin current in […]-C10; assay type: cell-based
T1 construct: endogenous in cells
T1 sequence (Q8NER1 whole entry): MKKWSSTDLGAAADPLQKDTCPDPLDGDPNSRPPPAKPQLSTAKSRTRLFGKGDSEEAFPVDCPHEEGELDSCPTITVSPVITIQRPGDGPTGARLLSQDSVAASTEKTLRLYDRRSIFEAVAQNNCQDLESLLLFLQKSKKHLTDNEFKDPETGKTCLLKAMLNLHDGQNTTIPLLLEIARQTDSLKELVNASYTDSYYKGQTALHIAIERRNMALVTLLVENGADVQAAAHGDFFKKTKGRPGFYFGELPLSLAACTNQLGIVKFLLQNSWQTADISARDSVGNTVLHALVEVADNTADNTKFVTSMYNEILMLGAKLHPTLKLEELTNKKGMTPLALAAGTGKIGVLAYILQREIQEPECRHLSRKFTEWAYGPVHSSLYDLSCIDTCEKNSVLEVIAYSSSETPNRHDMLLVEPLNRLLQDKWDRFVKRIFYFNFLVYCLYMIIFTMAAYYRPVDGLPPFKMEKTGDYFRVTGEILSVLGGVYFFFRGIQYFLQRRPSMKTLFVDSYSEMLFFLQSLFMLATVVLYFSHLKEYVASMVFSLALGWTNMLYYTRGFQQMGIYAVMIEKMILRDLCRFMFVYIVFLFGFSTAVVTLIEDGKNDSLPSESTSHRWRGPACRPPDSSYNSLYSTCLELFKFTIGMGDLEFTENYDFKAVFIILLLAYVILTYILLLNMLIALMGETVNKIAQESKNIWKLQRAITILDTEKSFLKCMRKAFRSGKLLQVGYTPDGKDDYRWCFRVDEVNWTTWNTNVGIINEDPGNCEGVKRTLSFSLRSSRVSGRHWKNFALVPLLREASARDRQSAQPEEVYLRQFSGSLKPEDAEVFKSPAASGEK

[4] = tested on: differentiated immortalized rat DRG cells; assay: Whole-cell patch clamp, capsaicin current in rat DRG cells; assay type: cell-based; settings: differentiated rat DRG cells (n=6)
[5] = target: T1, capsaicin receptors; assay: Cobalt histology for capsaicin sensitivity, […]-C10.6; assay type: cell-based; settings: 10 μM capsaicin; differentiated 7 days with T, HS, Fsk, G, C, N plus NT-3
Source text: (§1) In certain aspects of the present invention, conditionally-immortalized PNS progenitor cell lines may be used in a variety of in vitro assays and screens. In one such aspect, the cell lines may be used in in vitro assays for agents that inhibit the capsaicin response. Briefly, a clonal neuronal cell line may be differentiated under conditions in which capsaicin responsiveness can be assessed with a cobalt histological method. Capsaicin can be added to the culture in the presence or absence of a candidate agent, and cobalt uptake evaluated. Agents that block cobalt staining may act as capsaicin receptor antagonists.

[6] = target: T1, capsaicin receptors; assay: Cobalt histology for capsaicin sensitivity, […]-C11; assay type: cell-based
Source text: as §1

[7] = tested on: HDRGVIII-C10 cells; assay: NF160 immunolabeling after differentiation of […]-C10; assay type: cell-based; settings: 10 days with tetracycline, human serum, GDNF, CNTF, NGF plus forskolin (10 μM) or retinoic acid (0.5 μM)
Source text: Neuronal differentiation. […] After differentiation, phase-bright cells extending long fasciculating processes were present.

[8] = tested on: v-myc oncoprotein; assay: Immunocytochemistry for v-myc in […]-C10; assay type: cell-based, human; settings: after 6 days of tetracycline treatment (75±1.3% in proliferative condition)
[9] = tested on: immortalized rat DRG cultures; assay: βIII tubulin and NF160 immunolabeling, immortalized rat DRG cultures; assay type: cell-based; settings: for βIII-tubulin positive cells: 10 ng/mL in combination with NGF, rat serum and retinoic acid, rat tail collagen substrate
[10] = tested on: differentiated HDRGVIII-C10 cells; assay: Whole-cell patch clamp, ATP current in […]-C10; assay type: cell-based, human; settings: 10 μM; differentiated 1-2 weeks
[11] = tested on: conditionally-immortalized rat neural crest stem cells; assay: βIII tubulin immunolabeling, immortalized rat neural crest stem cells; assay type: cell-based; settings: with tetracycline, 5 days; LIF 100 ng/ml; EFN = EGF 100 ng/ml, FGF-2 4 ng/ml, NGF 2.0 ng/ml
[12] = tested on: HDRGVIII-C11 cells; assay: βIII-tubulin-positive neurons after differentiation of […]-C11; assay type: cell-based, human
[13] = tested on: HDRGVIII-C10.6 cells; assay: Peripherin immunolabeling after differentiation of […]-C10.6; assay type: cell-based, human; settings: T, HS, Fsk, G, C, N, plus NT-3 (25 ng/ml), 5 days (31±9% without NT-3)

**Q.** For Nc1ncnc2c1ncn2[C@@H]1O[C@H](COP(=O)(O)OP(=O)(O)OP(=O)(O)O)[C@@H](O)[C@H]1O [ATP], which “desensitization of elicited currents” value [1] is on record?
**A.** ~15%

**Q.** And the “cells with ATP-activated current” value ([1]; after 1 week of differentiation (n=14))?
**A.** no cells

**Q.** And the “cells with ATP-activated current” value ([1]; after 3 weeks of differentiation)?
**A.** ~30%

**Q.** For NC1=N[C@H](O)[C@H]2[C@H]3O[C@]4(O)O[C@@H]([C@@H](O)[C@@]2(N1)[C@@H]4O)[C@]3(O)CO [TTX, tetrodotoxin], which “sensitivity of voltage-gated sodium currents” value [2] is on record?
**A.** TTX-sensitive

**Q.** For COc1cc(CNC(=O)CCCC/C=C/C(C)C)ccc1O [capsaicin], which response to capsaicin ([3]; 1 μM, differentiated cells with neuronal morphology) is on record?
**A.** exhibited responses

**Q.** And the response to capsaicin ([3]; prior to differentiation)?
**A.** no immortalized human PNS HDRGVIII-C10 cells exhibited responses

**Q.** What about the response to capsaicin [4] of the same molecule?
**A.** did not exhibit responses

**Q.** What about the “cells with neuronal morphology exhibiting cobalt uptake” value [5] of the same molecule?
**A.** 30.8±2.9%

**Q.** And the “cells with neuronal morphology sensitive to capsaicin (cobalt precipitate)” value ([6]; 10 μM or 100 μM, differentiated with T, HS, Fsk, G, C, N plus NT-3)?
**A.** Approximately 30%

**Q.** And the “I Capsaicin” value ([2]; Proliferative, held at -80 mV)?
**A.** 0 pA

**Q.** What about the “I Capsaicin” value ([2]; THSFskGCN, 8 days) of the same molecule?
**A.** 114 ± 14 pA

**Q.** And the “I Capsaicin” value ([2]; THSFskGCN, 11 days)?
**A.** 217 ± 36 pA

**Q.** For Oc1cc2c(cc1O)CN(C(=S)NCCc1ccc(Cl)cc1)CCC2 [capsazepine], which “effect on response to 1 μM capsaicin” value ([3]; 20 μM capsazepine) is on record?
**A.** blocked; also recorded: inhibited

**Q.** And the “effect on capsaicin (10 μM)-induced cobalt labeling” value ([6]; 100 μM capsazepine)?
**A.** reduced substantially

**Q.** Which “cells with NF160 staining” value [7] does the source give for C=C[C@@]1(C)CC(=O)[C@]2(O)[C@@]3(C)[C@@H](O)CCC(C)(C)[C@@H]3[C@H](O)[C@H](OC(C)=O)[C@@]2(C)O1 [forskolin] here?
**A.** 15±2.2%

**Q.** CC1=C(/C=C/C(C)=C/C=C/C(C)=C/C(=O)O)C(C)(C)CCC1 [retinoic acid] was tested. Which “cells with NF160 staining” value [7] did it give?
**A.** 8.1%

**Q.** Which “percentage of v-myc positive cells” value [8] does the source give for CN(C)[C@@H]1C(O)=C(C(N)=O)C(=O)[C@@]2(O)C(O)=C3C(=O)c4c(O)cccc4[C@@](C)(O)[C@H]3C[C@@H]12 [tetracycline] here?
**A.** 1.1±0.8%

**Q.** And the “βIII tubulin positive neurons” value ([9]; tetracycline alone)?
**A.** ~2.5%

**Q.** Which results are given for Nc1ncnc2c1ncn2[C@@H]1O[C@H](COP(=O)(O)CP(=O)(O)OP(=O)(O)O)[C@@H](O)[C@H]1O [αβ-meATP, αβ-methylene-ATP]?
**A.** currents elicited [10]: Rapidly activating and strongly desensitizing currents; desensitization of elicited currents [1]: ~15%; cells with αβ-meATP responses ([1]; differentiated rat DRG cells): 1 of 20; I Purinergic (αβmeATP) ([2]; Proliferative, held at -80 mV): 29 ± 15 pA; I Purinergic (αβmeATP) ([2]; THSFskGCN, 8 days): 3 ± 3 pA; I Purinergic (αβmeATP) ([2]; THSFskGCN, 11 days): 226 ± 80 pA

**Q.** How did the βIII-tubulin positive cells [9] turn out when IL-1β: interleukin-1β was run?
**A.** 33%

**Q.** For LIF: leukemia inhibitory factor, which “βIII tubulin positive cells” value [11] is on record?
**A.** 28.4%

B1: IL-11: interleukin IL-11, differentiating factor (protein, UniProt P20809 22-199, looked up)
Interleukin-11: PGPPPGPPRVSPDPRAELDSTVLLTRSLLADTRQLAAQLRDKFPADGDHNLDSLPTLAMSAGALGALQLPGVLTRLRADLLSYLRHVQWLRRAGGSSLKTLEPELGTLQARLDRLLRRLQLLMSRLALPQPPPDPPAPPLAPPSSAWGGIRAAHAILGGLHLTLDWAVRGLLLLKTRL
**Q.** What does the source list for B1?
**A.** βIII-tubulin positive cells [9]: 34%; βIII-tubulin-positive neurons ([12]; differentiated with T, HS, Fsk, NGF plus IL-11): 1.5±0.9%

B2: NT-3: neurotrophin-3 (protein, UniProt P20783 139-257, looked up)
Neurotrophin-3: YAEHKSHRGEYSVCDSESLWVTDKSSAIDIRGHQVTVLGEIKTGNSPVKQYFYETRCKEARPVKNGCRGIDDKHWNSQCKTSQTYVRALTSENNKLVGWRWIRIDTSCVCALSRKIGRT
**Q.** What does the source list for B2?
**A.** βIII tubulin positive cells expressing NF160 ([9]; NT-3 added to medium containing NGF plus LIF or CNTF (less than 25% in absence of NT-3)): ≥ 65%; cells differentiated into βIII-tubulin-positive neurons ([12]; NT-3 added to standard differentiating medium (1.4±0.6% without NT-3)): 4.0±2.2%; cells expressing peripherin [13]: 43±8%

From patent US6835567B1, “PNS cell lines and methods of use therefor” (priority 1998, dated 2004)
